Counter-ions that a name gives are not always drawn. Like-named read-outs stand apart in the source and are kept apart here.
Columns and labels:
[1] = Acute toxicity (mortality during 7 days, oral); conditions: mouse, in vivo, male CD1 mice, fasted 16 hours, mortality noted during 7 days
Method: The test is carried out on male mice (CD1 Charles Rivers) weighing 22 to 24 g, which have gone without food for 16 hours. The products are administered by oral route at a dose of 1000, 500, 250, 125, 62, 31 and 16 mg/kg. The mortality is noted during the 7 days following the treatment.

[2] = tested on: isolated ileum of a guinea-pig; experiment: Test on the isolated ileum of a guinea-pig (agonist activity); assay type: cell-based; conditions: Cavia porcellus, read-out: pD2 (negative logarithm of the dose which produces 50% of the maximum effect) (converted)
Method: Pieces of ileum are removed from guinea-pigs which have been killed by decapitation. The isolated ileum is placed in 10 cm^3 of Tyrode's solution at 37° C. and aerated by a mixture of oxygen (95%) and carbon dioxide (5%). The contractions due to the products are recorded using a sensor connected to a polygraph. The products being tested are added, in concentrations comprised between 1.10^-3 M and 1.10^-8 M/1.
The products presenting a contracting effect are tested vis-a-vis atropine and hexamethonium to establish if the activity is of "muscarinic" or "nicotinic" type.
The agonist activity is expressed in pD2 (negative logarithm of the dose which produces 50% of the maximum effect).

[3] = tested on: male mice (CD1 Charles Rivers); experiment: Hypothermic activity; assay type: in vivo; conditions: for ED (-1 C body temperature): Mus musculus, read-out: Effective dose (-1° C.)
Method: The test is carried out on male mice (CD1 Charles Rivers) weighing 25 to 30 g, and without food for 6 hours.
The body temperature is noted using a thermocouple placed in the rectum to about 1.5 cm and connected to an electrical temperature recorder. […]
The degree of hypothermia is evaluated as the difference between the treated animals and the control animals and the dose necessary to reduce the body temperature by 1° C. is determined.
The duration of action of the products is determined by using doses capable of reducing the temperature by 1° to 1.2° C.

Diarrheic activity = experiment: Diarrheic activity; parameters: species or system mice; conditions: mouse, in vivo
Method: The test is carried out on male mice (CD1 Charles Rivers) weighing 25 to 30 g, and without food for 6 hours. The product, dissolved at 5% in methocel, is administered by oral route, using an oesophagus probe.
Control animals receive only the excipient (20 ml/kg).
After treatment, the animals are put separately into cages, the bottom of which is covered with absorbent paper, and are observed for 30, 60, 120 and 180 minutes.
The absorbent sheets of paper are changed after each observation.
The consistency of the faeces is evaluated according to the Randall and Baruth method (Arch. Int. Pharmacodyn., 220, 94, 1976) in accordance with the following scale of values.
1: slightly soft faeces with or without a damp ring,
2: slightly soft faeces with presence of a well-defined damp ring,
3: soft faeces with presence of a large damp ring,
4: faeces without consistency with presence of a very large camp ring.
For each product, the dose has been noted which cause diarrohea in 50% of the animals according to the Miller and Tainter method (Proc. Soc. Exp. Biol. Med., 57, 261, 1944).

[4] = isolated guinea-pig ileum, contraction, Tyrode's solution at 37° C.
[5] = sc, sub-cutaneous route, dose necessary to reduce body temperature by 1° C.
[6] = oral route, dose necessary to reduce body temperature by 1° C.

Q: Which LD50 at 168 h [1] does the source give for `CCON=CC1CN2CCC1CC2` (stereo not shown) [Example 2, 1-azabicyclo-[2,2,2]-octan-3-carboxaldehyde O-ethyloxime] here?
A: The LD50 at 168 h was 150 mg/kg.

Q: What does the source list for `CON=CC1CN2CCC1CC2` (stereo not shown) [Example 1, 1-azabicyclo-[2,2,2]-octan-3-carboxaldehyde O-methyloxime]?
A: EC50 [2, 4]: 50.1 nM; duration of action: body temperature difference from controls ([3]; 0.25 mg/kg oral, 30 min): -1.1 °C; duration of action: body temperature difference from controls ([3]; 0.25 mg/kg oral, 60 min): -1.0 °C; duration of action: body temperature difference from controls ([3]; 0.25 mg/kg sub-cutaneous, 30 min): -1.2 °C; duration of action: body temperature difference from controls ([3]; 0.25 mg/kg sub-cutaneous, 60 min): -1.1 °C; ED (-1 C body temperature) [3, 5]: 0.18 mg/kg; ED (-1 C body temperature) [3, 6]: 0.19 mg/kg; ED50 at 3 h (Diarrheic activity; po): 1.1 mg/kg; LD50 at 168 h [1]: 30 mg/kg

Q: With `C#CCON=CC1CN2CCC1CC2` (stereo not shown) [Example 3, 1-azabicyclo-[2,2,2]-octan-3-carboxaldehyde O-2-propynyloxime] as the compound, how does the LD50 at 168 h [1] read?
A: Its LD50 at 168 h is 40 mg/kg.

Q: Which EC50 [2, 4] does the source give for `CON=C(C)C1CN2CCC1CC2` (stereo not shown) [Example 4, (1-azabicyclo-[2,2,2]-octan-3-yl)-ethanone O-methyloxime hydrochloride] here?
A: Its EC50 is 95.5 nM.

Q: What about the ED (-1 C body temperature) [3, 5] of the same compound?
A: Its ED (-1 C body temperature) is 0.33 mg/kg.

Q: What about the ED (-1 C body temperature) [3, 6] of the same compound?
A: Its ED (-1 C body temperature) is 0.33 mg/kg.

Q: And the ED50 at 3 h (Diarrheic activity; po)?
A: The ED50 at 3 h was 3 mg/kg.

Q: What about the LD50 at 168 h [1] of the same compound?
A: The LD50 at 168 h was 75 mg/kg.

Q: With `CC(=O)OC1CN2CCC1CC2` (stereo not shown) [Aceclidine, HCl] as the compound, how does the EC50 [2] read?
A: Its EC50 is 105 nM.

Q: And the “duration of action: body temperature difference from controls” value ([3]; 2.50 mg/kg sub-cutaneous, 30 min)?
A: The value was -1.0 °C.

Q: And the “duration of action: body temperature difference from controls” value ([3]; 2.50 mg/kg sub-cutaneous, 60 min)?
A: The value was -0.1 °C.

Q: And the “duration of action: body temperature difference from controls” value ([3]; 2.50 mg/kg sub-cutaneous, 120 min)?
A: The value was “+0.1 °C”.

Q: What about the “duration of action: body temperature difference from controls” value ([3]; 2.50 mg/kg sub-cutaneous, 180 min) of the same compound?
A: The value was “+0.1 °C”.

Q: What about the “duration of action: body temperature difference from controls” value ([3]; 7.50 mg/kg oral, 30 min) of the same compound?
A: Its value is -1.1 °C.

Q: And the “duration of action: body temperature difference from controls” value ([3]; 7.50 mg/kg oral, 60 min)?
A: The value was -0.3 °C.

Q: And the “duration of action: body temperature difference from controls” value ([3]; 7.50 mg/kg oral, 180 min)?
A: Its value is “+0.1 °C”.

Q: And the ED (-1 C body temperature) ([3]; po)?
A: Its ED (-1 C body temperature) is 6.4 mg/kg.

Q: What about the ED (-1 C body temperature) ([3]; sc) of the same compound?
A: The ED (-1 C body temperature) was 2.1 mg/kg.

Q: And the ED50 at 3 h (Diarrheic activity; male CD1 mice, fasted 6 hours, oral, observed up to 180 minutes, read-out: ED50 (dose which causes diarrhoea in 50% of the animals))?
A: The ED50 at 3 h was 4 mg/kg.

Q: And the LD50 at 168 h [1]?
A: The LD50 at 168 h was 250 mg/kg.

From US5183893A, “1-azabicycloalkane derivatives, their preparation process and their use as medicaments” (Roussel Uclaf, priority 1988, dated 1993)
